For orientation: solubility means the concentration that dissolves in the medium under given conditions. The low end stands for a poorly soluble substance, the high end for a readily soluble substance.

The nature of one series: physchem. As to conditions: deionized water.
Method: The measurements were performed by mixing deionized water with a compound to be tested, subsequently stirring for 3 minutes using a electromagnetic vibrating stirrer, and determining a critical value (solubility) based on presence or absence of insoluble matter.
For `COC(=O)C1=C(C)NC(C)=C(C(=O)OCCC[n+]2ccsc2)[C@H]1c1cccc([N+](=O)[O-])c1` [Example 4, 3-thiazoliumpropyl (4S)-1,4-dihydro-2,6-dimethyl-5-methoxycarbonyl-4-(3-nitrophenyl)-pyridine-3-carboxylate iodide], the solubility at 0.05 h was not below 1000 µg/mL.

As to `COC(=O)C1=C(C)NC(C)=C(C(=O)OCCC[n+]2ccncc2)[C@H]1c1cccc([N+](=O)[O-])c1` [Example 3, 3-pyraziniumpropyl (4S)-1,4-dihydro-2,6-dimethyl-5-methoxycarbonyl-4-(3-nitrophenyl)-pyridine-3-carboxylate iodide], the solubility at 0.05 h was not below 1000 µg/mL.

Consider `COC(=O)C1=C(C)NC(C)=C(C(=O)OCCC[n+]2ccccc2)[C@H]1c1cccc([N+](=O)[O-])c1` [Example 2, 3-pyridiniumpropyl (4S)-1,4-dihydro-2,6-dimethyl-5-methoxycarbonyl-4-(3-nitrophenyl)-pyridine-3-carboxylate iodide], for which the solubility at 0.05 h is not below 1000 µg/mL.

Compound `COC(=O)C1=C(C)NC(C)=C(C(=O)OCCC[n+]2ccccn2)[C@H]1c1cccc([N+](=O)[O-])c1` [Example 5, 3-pyridaziniumpropyl (4S)-1,4-dihydro-2,6-dimethyl-5-methoxycarbonyl-4-(3-nitrophenyl)-pyridine-3-carboxylate iodide] came in with a solubility at 0.05 h not below 1000 µg/mL.

The nature of the next series: Test for solubility in water (deionized water, stirring 3 minutes, presence or absence of insoluble matter).
Settings: not given
`COC(=O)C1=C(C)NC(C)=C(C(=O)OCc2cccc[n+]2C)[C@H]1c1cccc([N+](=O)[O-])c1` [Example 11, 3-(1-methyl-2-pyridinium)methyl (4S)-1,4-dihydro-2,6-dimethyl-5-methoxycarbonyl-4-(3-nitrophenyl)-pyridine-3-carboxylate iodide]: the solubility at 0.05 h is not below 1000 µg/mL.

`COC(=O)C1=C(C)NC(C)=C(C(=O)OCCC[n+]2cccc(C#N)c2)[C@H]1c1cccc([N+](=O)[O-])c1` [Example 8, 3-(3-cyanopyridinium)propyl (4S)-1,4-dihydro-2,6-dimethyl-5-methoxycarbonyl-4-(3-nitrophenyl)-pyridine-3-carboxylate iodide]: the solubility at 0.05 h was not below 1000 µg/mL.

Turning to `COC(=O)C1=C(C)NC(C)=C(C(=O)OCCC[n+]2ccc(N(C)C)cc2)[C@H]1c1cccc([N+](=O)[O-])c1` [Example 9, 3-(4-dimethylaminopyridinium)propyl (4S)-1,4-dihydro-2,6-dimethyl-5-methoxycarbonyl-4-(3-nitrophenyl)-pyridine-3-carboxylate iodide], the solubility at 0.05 h was not below 1000 µg/mL.

Turning to `COC(=O)C1=C(C)NC(C)=C(C(=O)OCCC[n+]2cccc(C(=O)OC)c2)[C@H]1c1cccc([N+](=O)[O-])c1` [Example 7, 3-(3-methoxycarbonylpyridinium)propyl (4S)-1,4-dihydro-2,6-dimethyl-5-methoxycarbonyl-4-(3-nitrophenyl)-pyridine-3-carboxylate iodide], the solubility at 0.05 h was not below 1000 µg/mL.

In the case of `COC(=O)C1=C(C)NC(C)=C(C(=O)OCCCc2ccc[n+](C)c2)[C@H]1c1cccc([N+](=O)[O-])c1` [Example 12, 3-(1-methyl-3-pyridinium)propyl (4S)-1,4-dihydro-2,6-dimethyl-5-methoxycarbonyl-4-(3-nitrophenyl)-pyridine-3-carboxylate iodide], the solubility at 0.05 h was not below 1000 µg/mL.

The compound `COC(=O)C1=C(C)NC(C)=C(C(=O)OCCC[n+]2ccn(C)c2)[C@H]1c1cccc([N+](=O)[O-])c1` [Example 6, 3-(1-methylimidazolium)propyl (4S)-1,4-dihydro-2,6-dimethyl-5-methoxycarbonyl-4-(3-nitrophenyl)-pyridine-3-carboxylate iodide] yielded a solubility at 0.05 h not below 1000 µg/mL.

Regarding `COC(=O)C1=C(C)NC(C)=C(C(=O)OCCC[n+]2cccc(C(N)=O)c2)[C@H]1c1cccc([N+](=O)[O-])c1` [Example 10, 3-(3-carbamoylpyridinium)propyl (4S)-1,4-dihydro-2,6-dimethyl-5-methoxycarbonyl-4-(3-nitrophenyl)-pyridine-3-carboxylate iodide], the solubility at 0.05 h was not below 1000 µg/mL.

Values taken from US6133443A, “Optically active 1,4-dihydropyridine derivatives and process for the preparation thereof” (Mercian Corporation, priority 1996, dated 2000).
